Literature values as cited in patent publication US6432971B1, “Method of prevention of prostatic carcinoma with 17β-N-monosubstituted-carbamoyl-4-aza-5α-androst-1-en-3-ones” (Merck & Co., Inc., priority 1991, dated 2002).

Tests used:
[1] = tested on: testosterone-5α-reductase; conditions: in vitro; Voigt and Hsia, Endocrinology 92, 1216 (1973)
[2] = tested on: female hamster flank organ; conditions: for effect on flank organ response elicited by 5α-dihydrotestosterone: concomitant administration with topical 5α-dihydrotestosterone; for effect on flank organ response elicited by testosterone: concomitant administration with topical testosterone

## C[C@]12CC[C@H]3[C@@H](CCC4=CC(=O)CC[C@@]43C)[C@@H]1CC[C@@H]2C(=O)O [4-androsten-3-one-17β-carboxylic acid]
[1]
  inhibition of testosterone-5α-reductase: active inhibitors of testosterone-5α-reductase in vitro
[2]
  effect on flank organ response elicited by 5α-dihydrotestosterone: did not inhibit the response elicited by 5α-dihydrotestosterone
  effect on flank organ response elicited by testosterone: inhibited the response elicited by testosterone

## COC(=O)[C@H]1CC[C@H]2[C@@H]3CCC4=CC(=O)CC[C@]4(C)[C@H]3CC[C@]12C [methyl 4-androsten-3-one-17β-carboxylate]
[1]
  inhibition of testosterone-5α-reductase: active inhibitors of testosterone-5α-reductase in vitro
[2]
  effect on flank organ response elicited by 5α-dihydrotestosterone: did not inhibit the response elicited by 5α-dihydrotestosterone
  effect on flank organ response elicited by testosterone: inhibited the response elicited by testosterone
